Reference: the supplement of paper PMC10307832

Key:
Experiment in all cases: relative viability (nuclei count vs DMSO), 5 days (fraction); higher = more cells survive
XMD14-99 = compound: CN1CCN(CC1)C2=CC(=C(C=C2)NC3=NC(=C(S3)C(=O)C4=C(C=CC=C4Cl)Cl)N)OC [XMD14-99]
Outline: (§1)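 Following overnight incubation at 37 °C, lung cancer cell lines in 1536-well plates were pinned with five library-drug doses (not always all listed) in √10 steps on vehicle-anchored plates. The cells then spent 5 days without medium change before a combined fix, permeabilisation and Hoechst stain, 4× imaging and MetaXpress nuclear counts. Viability is the treated-to-vehicle ratio of nuclei, taken as the median across plates. Only plates with control CV below 25% and at least one doubling passed.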

AZD1208 = compound: N[C@@H]1CCCN(c2c(/C=C3\SC(=O)NC3=O)cccc2-c2ccccc2)C1 [AZD1208]
Outline: as §1

XMD14-99 + Alpelisib = compound: CN1CCN(CC1)C2=CC(=C(C=C2)NC3=NC(=C(S3)C(=O)C4=C(C=CC=C4Cl)Cl)N)OC [XMD14-99] + Cc1nc(NC(=O)N2CCC[C@H]2C(N)=O)sc1-c1ccnc(C(C)(C)C(F)(F)F)c1 [Alpelisib] (partner 2 µM)
Outline: (§2)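 Relative viability was taken as the ratio of nuclei in treated wells to nuclei in vehicle wells. Lung cancer cell lines in 1536-well plates received compounds by pin tool one day after seeding, either one drug alone or a fixed anchor-drug dose plus five library-drug doses (not always all listed) in √10 steps. Nuclei were counted on 4× images after 5 days of treatment, and values are medians of duplicate plates.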

AZD1208 + Bortezomib = compound: N[C@@H]1CCCN(c2c(/C=C3\SC(=O)NC3=O)cccc2-c2ccccc2)C1 [AZD1208] + CC(C)C[C@H](NC(=O)[C@H](Cc1ccccc1)NC(=O)c1cnccn1)B(O)O [Bortezomib] (partner 0.002 µM)
Outline: as §2

Cell Line | relative viability (XMD14-99; 0.08 µM) | relative viability (XMD14-99; 0.8 µM) | relative viability (XMD14-99; 2.53 µM) | relative viability (XMD14-99; 8 µM) | relative viability (AZD1208; 0.08 µM) | relative viability (AZD1208; 0.253 µM) | relative viability (AZD1208; 0.8 µM) | relative viability (AZD1208; 2.53 µM) | relative viability (AZD1208; 8 µM) | relative viability (XMD14-99 + Alpelisib; first compound 0.08 µM) | relative viability (XMD14-99 + Alpelisib; first compound 0.8 µM) | relative viability (XMD14-99 + Alpelisib; first compound 2.53 µM) | relative viability (XMD14-99 + Alpelisib; first compound 8 µM) | relative viability (AZD1208 + Bortezomib; first compound 0.08 µM) | relative viability (AZD1208 + Bortezomib; first compound 0.253 µM) | relative viability (AZD1208 + Bortezomib; first compound 0.8 µM) | relative viability (AZD1208 + Bortezomib; first compound 2.53 µM) | relative viability (AZD1208 + Bortezomib; first compound 8 µM)
SW 1573 | 0.964 | 0.939 | 1 | 0.834 | 0.822 | 0.899 | 0.799 | 0.807 | 0.696 | 0.8 | 0.737 | 0.697 | 0.651 | 0.963 | 1.14 | 0.935 | 0.907 | 0.717
NCI-H1299 | 0.996 | 0.98 | 0.941 | 0.859 | 1.01 | 1.06 | 1.03 | 1.06 | 1.06 | 1.05 | 1.04 | 1.05 | 0.884 | 1.06 | 1.07 | 0.994 | 0.986 | 1.02
NCI-H2023 | 0.961 | 0.875 | 0.953 | 0.71 | 0.863 | 1.01 | 0.86 | 0.867 | 0.769 | 0.614 | 0.527 | 0.646 | 0.534 | 0.888 | 1.02 | 0.983 | 0.695 | 0.849
LOU-NH91 | 1.06 | 0.922 | 0.898 | 0.829 | 1.02 | 0.889 | 0.954 | 0.953 | 0.892 | 0.72 | 0.804 | 0.735 | 0.622 | 0.539 | 0.516 | 0.564 | 0.504 | 0.593
NCI-H3122 | 1 | 0.995 | 0.892 | 0.694 | 0.994 | 0.996 | 0.932 | 1.04 | 0.981 | 0.76 | 0.741 | 0.542 | 0.319 | 1.02 | 1.04 | 1.04 | 1.06 | 1.06
LCLC-97TM1 | 0.982 | 1 | 0.828 | 0.571 | 0.95 | 0.885 | 0.813 | 0.852 | 0.631 | 0.263 | 0.201 | 0.202 | 0.202 | 0.671 | 0.737 | 0.51 | 0.762 | 0.475
NCI-H647 | 0.981 | 0.99 | 0.92 | 0.819 | 1.02 | 1.04 | 0.891 | 0.892 | 0.788 | 1.05 | 1.07 | 0.937 | 0.933 | 1.05 | 1.12 | 0.902 | 0.774 | 0.774
NCI-H838 | 0.911 | 0.939 | 0.873 | 0.658 | 0.938 | 0.967 | 0.841 | 0.902 | 0.844 | 1 | 0.928 | 0.904 | 0.604 | 0.873 | 0.94 | 0.714 | 0.8 | 0.692
H3255 | 0.955 | 0.957 | 0.802 | 0.684 | 1.04 | 1.02 | 0.938 | 0.934 | 0.947 | 0.605 | 0.636 | 0.629 | 0.506 | 0.874 | 0.758 | 0.667 | 0.968 | 0.718
NCI-H1437 | 0.968 | 0.903 | 0.814 | 0.682 | 1.06 | 1.13 | 1.05 | 1.03 | 0.939 | 0.881 | 0.804 | 0.787 | 0.671 | 0.542 | 0.754 | 0.584 | 0.42 | 0.444
LU99A | 0.982 | 1.03 | 0.896 | 0.8 | 0.974 | 0.963 | 0.921 | 0.878 | 0.807 | 0.511 | 0.547 | 0.46 | 0.415 | 1.07 | 1.2 | 1.27 | 1.12 | 0.904
HCC-827 | 1.06 | 0.972 | 0.961 | 0.881 | 1.08 | 1.08 | 1.05 | 1.08 | 1.01 | 1.05 | 0.902 | 0.948 | 0.741 | 1.13 | 1.06 | 0.97 | 1.07 | 1.14
HCC-366 | 0.988 | 0.996 | 1.01 | 0.894 | 1 | 0.996 | 1.03 | 1.01 | 0.993 | 0.475 | 0.413 | 0.366 | 0.232 | 1.02 | 1.09 | 0.943 | 1.03 | 0.973
BEN | 0.969 | 0.988 | 0.961 | 0.801 | 0.954 | 0.84 | 0.629 | 0.709 | 0.537 | 0.94 | 0.936 | 0.854 | 0.801 | 0.796 | 0.763 | 0.495 | 0.636 | 0.475
NCI-H2347 | 1.04 | 1 | 0.966 | 0.637 | 1.02 | 1.09 | 1 | 0.951 | 1.08 | 0.995 | 0.984 | 0.958 | 0.572 | 0.933 | 0.734 | 0.822 | 0.791 | 1.08
201T | 0.993 | 0.986 | 0.99 | 0.804 | 1.05 | 0.99 | 0.952 | 0.933 | 0.939 | 0.998 | 1 | 0.841 | 0.952 | 1.13 | 1.14 | 1.13 | 1.16 | 1.13
NCI-H520 | 0.903 | 0.96 | 0.932 | 0.818 | 0.938 | 1.17 | 0.943 | 0.908 | 0.754 | 0.83 | 0.843 | 0.83 | 0.707 | 0.597 | 0.718 | 0.311 | 0.428 | 0.399
NCI-H727 | 1.03 | 0.815 | 0.846 | 0.567 | 0.891 | 0.886 | 0.777 | 0.755 | 0.827 | 0.553 | 0.513 | 0.447 | 0.407 | 0.641 | 0.895 | 0.804 | 0.882 | 0.697
HCC-15 | 1.02 | 1.03 | 0.922 | 0.759 | 1.01 | 1.02 | 0.879 | 0.939 | 0.805 | 0.906 | 0.883 | 0.827 | 0.657 | 1.06 | 1.21 | 1.07 | 1.08 | 0.948
NCI-H1563 | 0.926 | 0.999 | 0.92 | 0.833 | 0.962 | 0.928 | 0.952 | 0.956 | 0.923 | 0.85 | 0.894 | 0.957 | 0.869 | 0.829 | 0.811 | 0.958 | 0.754 | 0.765
ABC-1 | 0.99 | 1.03 | 0.964 | 0.727 | 0.965 | 0.966 | 0.856 | 0.923 | 0.899 | 1.03 | 0.985 | 0.927 | 0.747 | 0.302 | 0.31 | 0.282 | 0.268 | 0.213
LCLC-103H | 0.953 | 1.02 | 0.963 | 0.907 | 1.02 | 1.04 | 0.938 | 0.773 | 0.777 | 0.867 | 1.04 | 0.959 | 0.863 | 1.01 | 1.12 | 1.02 | 0.949 | 0.85
NCI-H460 | 1.02 | 0.965 | 0.954 | 0.841 | 0.997 | 1.1 | 0.962 | 0.998 | 1.03 | 0.36 | 0.419 | 0.431 | 0.197 | 1.04 | 1.63 | 1.06 | 1.13 | 0.925
EPLC-272H | 1.09 | 0.998 | 0.942 | 0.787 | 0.983 | 0.974 | 0.861 | 0.864 | 0.742 | 0.938 | 1.01 | 0.928 | 0.92 | 0.878 | 0.806 | 0.924 | 0.927 | 0.728
